Entries after “also recorded” stand apart in the source; their conditions may differ. Blank lines part the entries; values can stand above or below the molecule they belong to. Square brackets hold non-standard residues; d marks the D form. Peptide text beside a SMILES is read from it. * marks the point of attachment. Sta = CC(C)C[C@H](N)[C@@H](O)CC(=O)O; Isovaleryl = CC(C)CC(=O)*
Columns and labels:
[1] = system: β-secretase endoprotease activity in chromaffin vesicles; experiment: Effect of reducing agent DTT on β-secretase endoprotease activity in chromaffin vesicle lysate; assay type: biochemical, bovine; details: 1 mM DTT vs absence of DTT; lysed vesicles
Experimental: The β-secretase endoprotease activity was identified by incubating the chromaffin vesicle lysate (2-10 μl of 10-20 mg protein/ml) with the Z*Val-Lys-Met-MCA substrate (100 μM final concentration) and detecting AMC fluorescence. The chromaffin vesicle lysate was prepared as described in Example I. The endoprotease activity was determined as a function of pH by varying the pH of the incubation solution between 3.0 to 8.0 in 0.5 pH increments. Citric acid, sodium phosphate, and Tris-HCl buffers (100 mM final concentration) were used to adjust the pH of the incubation solutions between 3.0 to 5.5, 6.0 to 7.5, and 8.0, respectively. […]
As discussed above, endoprotease cleavage between the Met-MCA bond in the Z*Val-Lys-Met-MCA substrate produces fluorescent AMC, but endoprotease cleavage between the Lys-Met or Val-Lys bonds in that substrate produces non-fluorescent Lys-Met-MCA and Met-MCA peptides. To insure that the latter two endoprotease cleavages were detected, aminopeptidase M (20 μg/ml final concentration, BOEHRINGER […]) was added to each incubation solutions to produce fluorescent AMC from the Lys-Met-MCA and Met-MCA peptides. […]
The effect of the reducing agent dithiothreitol (DTT) on β-secretase endoprotease activity was determined using the assay described in Example III. […]

[2] = system: β-secretase endoprotease activity; experiment: β-secretase endoprotease activity with/without DTT in fractions obtained during isolation of chromaffin vesicles; assay type: biochemical, bovine; details: pH 5.5
Experimental: The effect of the reducing agent dithiothreitol (DTT) on β-secretase endoprotease activity was determined using the assay described in Example III. Briefly, the lysed vesicles were incubated with the substrate Z*Val-Lys-Met-MCA in the presence or absence of 1 mM DTT and the resulting fluorescence plotted as a function of pH. Both with and without DTT, β-secretase endoprotease activity was detected and in both cases that activity had pH optimum of about 4.0 to 6.0, which is consistent with the intravesicular pH of chromaffin vesicles.
The β-secretase endoprotease activity of fractions obtained during the isolation procedure described in Example I was determined at the pH optimum of 5.5, with and without DTT using the assay described in Example VII.

[3] = system: Peak I β-secretase endoprotease activity; experiment: Protease inhibitors of β-secretase endoprotease activity in Peak I; assay type: biochemical, bovine; details: for Peak I (%) of control: control (no inhibitor) = 100
Experimental: (§1) The protease inhibitor was added to each assay at the start of the reaction at the appropriate concentration. The extent of inhibition was expressed as a percentage of the activity without the inhibitor (control).
(§2) The contents of the eluted Con-A bound fraction were fractioned according to molecular size using a Sephacryl S200 column (Krieger, T. K. and Hook, V. Y. H. ibid.) .

[4] = system: Peak II β-secretase endoprotease activity; experiment: Protease inhibitors of β-secretase endoprotease activity in Peak II; assay type: biochemical, bovine; details: for Peak II (%) of control: control (no inhibitor) = 100
Experimental: as §1, §2

[5] = system: β-secretase endoprotease activity in chromaffin vesicle lysate; experiment: Protease inhibitors of β-secretase endoprotease activity in chromaffin vesicle lysate (Z*Val-Lys-Met-MCA cleavage, with aminopeptidase M); assay type: biochemical, bovine; details: for inhibition of β-secretase endoprotease activity in the lysate, in words: chromaffin vesicle lysate; for % CONTROL (β-secretase endoprotease activity): pH 5.5, with aminopeptidase M, activity as % of no-inhibitor control
Experimental: The β-secretase endoprotease activity was identified by incubating the chromaffin vesicle lysate (2-10 μl of 10-20 mg protein/ml) with the Z*Val-Lys-Met-MCA substrate (100 μM final concentration) and detecting AMC fluorescence. The chromaffin vesicle lysate was prepared as described in Example I. The endoprotease activity was determined as a function of pH by varying the pH of the incubation solution between 3.0 to 8.0 in 0.5 pH increments. Citric acid, sodium phosphate, and Tris-HCl buffers (100 mM final concentration) were used to adjust the pH of the incubation solutions between 3.0 to 5.5, 6.0 to 7.5, and 8.0, respectively. Duplicate samples at each pH increment (100 μl each) were distributed among 22 wells in a covered microtiter well plate and incubated at 37° C. for 8 hours in a water bath.
As discussed above, endoprotease cleavage between the Met-MCA bond in the Z*Val-Lys-Met-MCA substrate produces fluorescent AMC, but endoprotease cleavage between the Lys-Met or Val-Lys bonds in that substrate produces non-fluorescent Lys-Met-MCA and Met-MCA peptides. To insure that the latter two endoprotease cleavages were detected, aminopeptidase M (20 μg/ml final concentration, BOEHRINGER […]) was added to each incubation solutions to produce fluorescent AMC from the Lys-Met-MCA and Met-MCA peptides. Prior to adding the aminopeptidase M, each incubation solution was adjusted to a pH 8.3 using Tris-HCl because aminopeptidase M functions at a basic pH. A second incubation at 37° C. for 1 hour in the water bath was conducted to complete the aminopeptidase M reaction.
Upon termination of that second incubation, AMC fluorescence was assayed using a fluorometer (IDEXX fluorometer, FCA Fluorescence Concentration Analyzer, cat. no. 10-105-2, BAXTER HEALTH CARE CORP., Mundelein, Ill.) at excitation and emission wavelengths of 365 and 450 nm, respectively. Standard AMC concentrations were also measured to quantitate relative fluorescence with the molar amount (pmol) of AMC generated by the secretase. The resulting AMC fluorescence reflects the endoprotease activity in cleaving either the Met-MCA, Lys-Met. and Val-Lys bonds in the Z*Val-Lys-Met-MCA substrate.
The effect of the aminopeptidase M and the basic pH buffer used in the β-secretase endoprotease activity assay was determined. The assay was conducted as described in Example VIII with DTT. Three assays were conducted, one with aminopeptidase M in its basic pH buffer, another with the basic pH buffer but not aminopeptidase M, and a third without either the buffer or the aminopeptidase M. Briefly, the chromaffin vesicle lysate and the substrate Z*Val-Lys-Met-MCA were incubated for 30 minutes at a specified pH and the resulting fluorescence measured. The aminopeptidase M in the basic pH buffer or that buffer alone (final concentration of 75 mM Tris-HCl pH 8.2) was added to the assay and incubated an additional 60 minutes at 37° C. […] The assay conducted with aminopeptidase M and its basic pH buffer and that of the control assay having just the basic pH buffer produced approximately the same amount of fluorescence.
The effect of various protease inhibitors on β-secretase endoprotease activity in the lysate was determined at the pH optimum 5.5 in the assay described in Example IX containing aminopeptidase M. Protease inhibitors specific for various protease classes were used. The protease inhibitor was added to each assay at the start of the reaction at the appropriate concentration. The extent of inhibition was expressed as a percentage of the activity without the inhibitor (control). Triplicate assays varied by less than 10%.

chromaffin cells = experiment: Aβ-peptide secretion by primary chromaffin cell cultures (RIA of Aβ1-40 in media); assay type: cell-based, bovine; details: 15 minutes
Experimental: Primary chromaffin cell cultures containing approximately 2 million cells in each culture were produced using established methods (Hook et al., ibid.; and Tezapsidis et al., ibid.). Exocytosis of the contents of the vesicles in such cells was induced by exposing the cells to KCl (50 mM) or nicotine (10 μM) for 15 minutes.

increase in the β-secretase endoprotease activity [1]: approximately 5 fold
RATIO of activities (with/without DTT) ([2]; Adrenal Medulla Homgenate): 4.7
RATIO of activities (with/without DTT) ([2]; Pellet from 1st 8,800 rpm Centrifugation (crude vesicle fraction)): 3.2
RATIO of activities (with/without DTT) ([2]; Pellet from 2nd 8,800 rpm Centrifugation (washed vesicle fraction)): 6.3
RATIO of activities (with/without DTT) ([2]; Pellet from 1,500 rpm Centrifugation (nuclear fraction)): 11.6
RATIO of activities (with/without DTT) ([2]; Pellet from 25,000 rpm Discontinuous Gradient Centrifugation (vesicle fraction)): 11.0
SMILES: O[C@H](CS)[C@H](O)CS (racemic) [DTT, dithiothreitol]

inhibition of Peak I activity, in words [3]: significantly inhibited
Peak I (%) of control ([3]; inhibitor 500 μM): 31%
inhibition of Peak II activity, in words [4]: only slightly inhibited
Peak II (%) of control ([4]; inhibitor 500 μM): 72%
SMILES: c1cnc2c(c1)ccc1cccnc12 [1,10 Phenanthroline]

SMILES: CC(C)C[C@H](NC(=O)[C@@H](NC(=O)N[C@@H](Cc1ccccc1)C(=O)O)[C@@H]1CCN=C(N)N1)C(=O)N[C@H](C=O)Cc1ccccc1 [Chymostatin]
inhibition of β-secretase endoprotease activity in the lysate, in words [5]: greatly inhibited
% CONTROL (β-secretase endoprotease activity) ([5]; inhibitor 10 μM): 11%
inhibition of Peak I activity, in words [3]: maximally inhibited; also recorded: inhibited less than that of the lysate
Peak I (%) of control ([3]; inhibitor 10 μM): 0%
inhibition of Peak II activity, in words [4]: maximally inhibited; also recorded: inhibited less than that of the lysate
Peak II (%) of control ([4]; inhibitor 10 μM): 35%

inhibition of β-secretase endoprotease activity in the lysate, in words [5]: completely inhibited
% CONTROL (β-secretase endoprotease activity) ([5]; inhibitor 10 μM): 0%
Peak I (%) of control ([3]; inhibitor 10 μM): 0%
Peak II (%) of control ([4]; inhibitor 10 μM): 0%
SMILES: CC(C)CCNC(=O)[C@H](CC(C)C)NC(=O)[C@H]1O[C@@H]1C(=O)O [E64c]
inhibition of Peak I activity, in words [3]: maximally inhibited; also recorded: completely inhibited
inhibition of Peak II activity, in words [4]: maximally inhibited; also recorded: completely inhibited

% CONTROL (β-secretase endoprotease activity) ([5]; inhibitor 1 mM): 100%
Peak I (%) of control ([3]; inhibitor 1 mM): 99%
Peak II (%) of control ([4]; inhibitor 1 mM): 138%
SMILES: O=C(O)CN(CCN(CC(=O)O)CC(=O)O)CC(=O)O [EDTA, ethylenediaminetetraacetic acid]

% CONTROL (β-secretase endoprotease activity) ([5]; inhibitor 1 mM): 99%
Peak I (%) of control ([3]; inhibitor 1 mM): 108%
Peak II (%) of control ([4]; inhibitor 1 mM): 142%
SMILES: O=C(O)CN(CCOCCOCCN(CC(=O)O)CC(=O)O)CC(=O)O [EGTA]

SMILES: [Cl-].[K+] [KCl, potassium chloride]
increase in the concentration of Aβ1-40 peptide in the media relative to control media (chromaffin cells; KCl 50 mM): approximately 350 fold

SMILES: CC(=O)N[C@@H](CC(C)C)C(=O)N[C@@H](CC(C)C)C(=O)N[C@H](C=O)CCCNC(=N)N [Leupeptin]
inhibition of β-secretase endoprotease activity in the lysate, in words [5]: completely inhibited
% CONTROL (β-secretase endoprotease activity) ([5]; inhibitor 100 μM): 0%
inhibition of Peak I activity, in words [3]: maximally inhibited; also recorded: completely inhibited
Peak I (%) of control ([3]; inhibitor 100 μM): 0%
inhibition of Peak II activity, in words [4]: maximally inhibited; also recorded: completely inhibited
Peak II (%) of control ([4]; inhibitor 100 μM): 0%

SMILES: O=S(=O)(F)Cc1ccccc1 [PMSF, phenylmethylsulfonyl fluoride]
inhibition of β-secretase endoprotease activity in the lysate, in words [5]: significantly inhibited
% CONTROL (β-secretase endoprotease activity) ([5]; inhibitor 100 μM): 58%

SMILES: CC(C)CC(=O)N[C@H](C(=O)N[C@H](C(=O)N[C@@H](CC(C)C)[C@@H](O)CC(=O)N[C@@H](C)C(=O)N[C@@H](CC(C)C)[C@@H](O)CC(=O)O)C(C)C)C(C)C [Pepstatin A] (Isovaleryl-VV[Sta]A[Sta]-OH)
inhibition of β-secretase endoprotease activity in the lysate, in words [5]: slightly inhibited
% CONTROL (β-secretase endoprotease activity) ([5]; inhibitor 10 μM): 78%
inhibition of Peak I activity, in words [3]: did not significantly inhibit; also recorded: slightly inhibited
Peak I (%) of control ([3]; inhibitor 100 μM): 85%
inhibition of Peak II activity, in words [4]: did not significantly inhibit; also recorded: increased the activity
Peak II (%) of control ([4]; inhibitor 100 μM): 132%

SMILES: CN1CCCC1c1cccnc1 (centres unmarked) [nicotine]
increase in the concentration of Aβ1-40 peptide in the media relative to control media (chromaffin cells; nicotine 10 μM): ~550 fold

SMILES: O=C(O)c1cc[c]([Hg][OH])cc1 [pHMB]
inhibition of β-secretase endoprotease activity in the lysate, in words [5]: greatly inhibited
% CONTROL (β-secretase endoprotease activity) ([5]; inhibitor 1 mM): 35%
inhibition of Peak I activity, in words [3]: slightly inhibited; also recorded: inhibited less than that of the lysate
Peak I (%) of control ([3]; inhibitor 1 mM): 67%
inhibition of Peak II activity, in words [4]: slightly inhibited; also recorded: inhibited less than that of the lysate
Peak II (%) of control ([4]; inhibitor 1 mM): 68%
